Experimental data as given in patent US20220259193A1, “KCNT1 INHIBITORS AND METHODS OF USE” (Praxis Precision Medicines, Inc., priority 2019, published 2022).

The molecules below were run against T1, KCNT1 (KNa1.1, Slack) (Homo sapiens, UniProt Q5JUK3) (assay: KCNT1 patch clamp assay (SyncroPatch 384PE automated patch clamp)). Details: tetracycline inducible HEK-TREX cell line; perforated patch; step from −80 mV to 0 mV; room temperature; read-out: KCNT1-WT IC50.
T1 construct: expressed in transfected cells; host or cells: HEK-TREX (tetracycline-inducible HEK cell line)
T1 sequence (Q5JUK3 1-1230): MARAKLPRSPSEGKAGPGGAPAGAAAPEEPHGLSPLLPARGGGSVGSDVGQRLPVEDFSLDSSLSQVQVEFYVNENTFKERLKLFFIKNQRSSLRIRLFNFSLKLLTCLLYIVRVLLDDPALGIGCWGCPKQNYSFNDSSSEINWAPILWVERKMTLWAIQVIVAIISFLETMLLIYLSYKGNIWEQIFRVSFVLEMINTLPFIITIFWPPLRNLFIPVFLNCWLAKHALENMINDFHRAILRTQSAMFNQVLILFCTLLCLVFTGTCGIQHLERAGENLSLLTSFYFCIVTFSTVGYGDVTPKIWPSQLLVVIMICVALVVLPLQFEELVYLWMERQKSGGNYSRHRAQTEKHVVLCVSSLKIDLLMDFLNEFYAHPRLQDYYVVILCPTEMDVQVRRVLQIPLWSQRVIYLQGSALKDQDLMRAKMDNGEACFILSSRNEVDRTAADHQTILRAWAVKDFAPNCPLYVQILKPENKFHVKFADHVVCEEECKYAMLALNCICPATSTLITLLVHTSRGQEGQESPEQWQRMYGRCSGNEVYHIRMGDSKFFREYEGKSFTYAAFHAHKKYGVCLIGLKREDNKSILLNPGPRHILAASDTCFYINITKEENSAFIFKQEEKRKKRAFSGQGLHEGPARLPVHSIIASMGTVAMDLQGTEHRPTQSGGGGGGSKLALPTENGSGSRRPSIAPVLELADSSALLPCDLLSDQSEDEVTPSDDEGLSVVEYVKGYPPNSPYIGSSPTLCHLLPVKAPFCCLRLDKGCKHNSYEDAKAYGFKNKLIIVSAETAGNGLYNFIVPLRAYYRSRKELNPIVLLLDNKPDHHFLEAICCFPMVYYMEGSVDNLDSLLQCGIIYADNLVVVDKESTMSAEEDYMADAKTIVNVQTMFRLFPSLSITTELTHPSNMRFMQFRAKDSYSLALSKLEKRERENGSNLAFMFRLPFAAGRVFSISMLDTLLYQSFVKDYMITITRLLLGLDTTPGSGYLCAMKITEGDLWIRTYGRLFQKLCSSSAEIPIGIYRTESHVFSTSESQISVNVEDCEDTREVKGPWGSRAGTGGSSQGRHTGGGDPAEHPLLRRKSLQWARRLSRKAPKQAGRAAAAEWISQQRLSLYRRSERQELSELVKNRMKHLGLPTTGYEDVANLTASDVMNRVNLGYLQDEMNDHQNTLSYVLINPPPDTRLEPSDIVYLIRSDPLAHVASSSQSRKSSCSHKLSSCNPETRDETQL
Assay type: cell-based
Method: KCNT1—Patch Clamp Assay Inhibition of KCNT1 (KNa1.1, Slack) was evaluated using a tetracycline inducible cell line (HEK-TREX). Currents were recorded using the SyncroPatch 384PE automated, patch clamp system. Pulse generation and data collection were performed with PatchController384 V1.3.0 and DataController384 V1.2.1 (Nanion Technologies). The access resistance and apparent membrane capacitance were estimated using built-in protocols. Current were recorded in perforated patch mode (10 μM escin) from a population of cells. […] The cells were allowed to recover in the cell hotel prior to experimentation. Currents were recorded at room temperature. […] The extracellular solution was used as the wash, reference and compound delivery solution. […] Escin is made at a 5 mM stock in water, aliquoted, and stored at −20° C. The compound plate was created at 2× concentrated in the extracellular solution. The compound was diluted to 1:2 when added to the recording well. The amount of DMSO in the extracellular solution was held constant at the level used for the highest tested concentration. A holding potential of −80 mV with a 100 ms step to 0 mV was used. […] The average mean current from 3 sweeps was calculated and the % inhibition of each compound was calculated. The % Inhibition as a function of the compound concentration was fit with a Hill equation to derive IC50, slope, min and max parameters.

| IC50 | SMILES |
| --- | --- |
| 1000 to 20000 nM | Cn1nc(C2CC2)cc1C(=O)NC(c1ccccc1)c1nc(-c2cccc(F)c2)no1 (centres unmarked) [Compound 51] |
| ≥ 20000 nM | Cn1nc(C2CC2)cc1C(=O)NC(CO)c1nc(-c2cccc(F)c2)no1 (centres unmarked) [Compound 54] |
| 1000 to 20000 nM | Cc1cccc(-c2noc(C(C)NC(=O)c3c(C)cnn3C(C)C)n2)c1 (centres unmarked) [Compound 55] |
| 1000 to 20000 nM | Cn1nc(C2CC2)cc1C(=O)NC(COCc1ccccc1)c1nc(-c2cccc(F)c2)no1 (centres unmarked) [Compound 58, N-[2-benzyloxy-1-[3-(3-fluorophenyl)-1,2,4-oxadiazol-5-yl]ethyl]-5-cyclopropyl-2-methyl-pyrazole-3-carboxamide] |
| ≥ 20000 nM | Cc1cccc(-c2noc(C(C)NC(=O)c3cnn(C(C)C)c3C)n2)c1 (centres unmarked) [Compound 59] |
| ≤ 1000 nM | CC[C@H](NC(=O)c1cc(C2CC2)nn1C)c1nc(-c2cccc(F)c2)no1 [Compound 60] |
| ≤ 1000 nM | CC[C@@H](NC(=O)c1cc(C2CC2)nn1C)c1nc(-c2cccc(F)c2)no1 [Compound 61] |
| 1000 to 20000 nM | CC(C)[C@@H](NC(=O)c1cc(C2CC2)nn1C)c1nc(-c2cccc(F)c2)no1 [Compound 62] |
| ≤ 1000 nM | CC(C)[C@H](NC(=O)c1cc(C2CC2)nn1C)c1nc(-c2cccc(F)c2)no1 [Compound 63] |
| ≤ 1000 nM | Cn1nc(C2CC2)cc1C(=O)NC1(c2nc(-c3cccc(F)c3)no2)CCCCC1 [Compound 66] |
| ≤ 1000 nM | CC(NC(=O)c1cc(C(F)(F)F)nn1C)c1nc(-c2ccc(F)c(F)c2)no1 (centres unmarked) [Compound 67] |
| ≤ 1000 nM | COCC(NC(=O)c1cc(C(F)(F)F)nn1C)c1nc(-c2cccc(C)c2)no1 (centres unmarked) [Compound 72] |
| ≤ 1000 nM | CC(NC(=O)c1cc(C(F)(F)F)nn1C(F)F)c1nc(-c2cccc(Cl)c2)no1 (centres unmarked) [Compound 73] |
| ≤ 1000 nM | CC(NC(=O)c1cc(C(F)(F)F)nn1C)c1nc(-c2ccc(Cl)cc2Cl)no1 (centres unmarked) [Compound 75] |
| ≥ 20000 nM | Cc1nn(C(C)C)cc1C(=O)N[C@@H](C)c1nc(-c2cccc(C#N)c2)no1 [Compound 85] |
| ≤ 1000 nM | Cc1nn(C(C)C)cc1C(=O)N[C@@H](C)c1nc(-c2ccc(Cl)c(F)c2)no1 [Compound 86] |
| 1000 to 20000 nM | Cc1nn(C(C)C)cc1C(=O)N[C@@H](C)c1nc(-c2ccc(F)c(F)c2)no1 [Compound 87] |
| 1000 to 20000 nM | Cc1nn(C(C)C)cc1C(=O)N[C@@H](C)c1nc(-c2ccc(F)c(Cl)c2)no1 [Compound 88] |
| ≤ 1000 nM | Cc1nn(C(C)C)cc1C(=O)N[C@@H](C)c1nc(-c2cccc(C(F)(F)F)c2)no1 [Compound 89] |
| 1000 to 20000 nM | Cc1nn(C(C)C)cc1C(=O)N[C@@H](C)c1nc(-c2ccc(F)cc2)no1 [Compound 90] |
| ≤ 1000 nM | Cc1nn(C(C)C)cc1C(=O)N[C@@H](C)c1nc(-c2cc(F)cc(Cl)c2)no1 [Compound 91] |
| ≤ 1000 nM | Cc1nn(C(C)C)cc1C(=O)N[C@@H](C)c1nc(-c2cc(F)cc(F)c2)no1 [Compound 92] |
| 1000 to 20000 nM | Cc1nn(C(C)C)cc1C(=O)N[C@@H](C)c1nc(-c2cccc(F)c2)no1 [Compound 95] |
| ≤ 1000 nM | Cc1nn(C(C)C)cc1C(=O)NC(C)c1nc(-c2cccc(Cl)c2)no1 (centres unmarked) [Compound 96] |
| ≤ 1000 nM | Cc1nn(C(C)C)cc1C(=O)NC(C)c1nc(-c2ccc(Cl)cc2)no1 (centres unmarked) [Compound 97] |
| 1000 to 20000 nM | Cc1nn(C(C)C)cc1C(=O)NC(C)c1nc(-c2ccc(C(F)(F)F)cc2)no1 (centres unmarked) [Compound 98] |
| 1000 to 20000 nM | Cc1nn(C(C)C)cc1C(=O)NC(C)c1nc(-c2ccc(OC(F)(F)F)cc2)no1 (centres unmarked) [Compound 99] |

| IC50 | SMILES |
| --- | --- |
| 1000 to 20000 nM | Cc1nn(C(C)C)cc1C(=O)N[C@@H](C)c1nc(-c2cccc(OC(F)(F)F)c2)no1 [Compound 100] |
| 1000 to 20000 nM | Cc1nn(C(C)C)cc1C(=O)NC(C)c1nc(-c2cccc(OC(F)F)c2)no1 (centres unmarked) [Compound 101] |
| ≤ 1000 nM | CC(NC(=O)c1cc(C(F)(F)F)nn1C)c1nc(-c2cc(F)cc(F)c2)no1 (centres unmarked) [Compound 103] |
| 1000 to 20000 nM | C[C@H](NC(=O)c1cc(C(F)(F)F)nn1C)c1nc(-c2cccc(C#N)c2)no1 [Compound 104] |
| ≤ 1000 nM | CC[C@H](NC(=O)c1cc(C(F)(F)F)nn1C)c1nc(-c2cccc(F)c2)no1 [Compound 105] |
| ≤ 1000 nM | CC[C@H](NC(=O)c1cc(C(F)(F)F)nn1CC(F)F)c1nc(-c2cccc(F)c2)no1 [Compound 111] |
| ≤ 1000 nM | CC[C@H](NC(=O)c1cc(C(F)(F)F)nn1C(F)F)c1nc(-c2cccc(F)c2)no1 [Compound 112] |
| ≤ 1000 nM | CC[C@H](NC(=O)c1cc(C(F)(F)F)nn1C1CC1)c1nc(-c2cccc(F)c2)no1 [Compound 113] |
| 1000 to 20000 nM | Cn1nc(C(F)(F)F)cc1C(=O)NC1(c2nc(-c3cccc(F)c3)no2)CCOCC1 [Compound 118] |
| ≤ 1000 nM | Cn1nc(C(F)(F)F)cc1C(=O)NC1(c2nc(-c3cccc(F)c3)no2)COC1 [Compound 119] |
| ≤ 1000 nM | CC[C@H](NC(=O)c1cc(C(F)F)nn1C)c1nc(-c2cccc(F)c2)no1 [Compound 120] |
| ≥ 20000 nM | Cn1nc(C(F)(F)F)cc1C(=O)N[C@H](CC(=O)NCCO)c1nc(-c2cccc(F)c2)no1 [Compound 122] |
| ≥ 20000 nM | Cn1nc(C(F)(F)F)cc1C(=O)NC(CC(=O)N1CC(O)C1)c1nc(-c2cccc(F)c2)no1 (centres unmarked) [Compound 123] |
| ≥ 20000 nM | Cn1nc(C(F)(F)F)cc1C(=O)NC(CC(=O)N1CC(O)C1)c1nc(-c2cccc(F)c2)no1 (centres unmarked) [Compound 124] |
| ≤ 1000 nM | C[C@H](NC(=O)c1cc(C(F)(F)F)nn1C(F)F)c1nc(-c2cccc(F)c2)no1 [Compound 127] |
| ≤ 1000 nM | C[C@H](NC(=O)c1cc(C(F)F)nn1C(F)F)c1nc(-c2cccc(F)c2)no1 [Compound 130] |
| 1000 to 20000 nM | CO[C@H](C)[C@H](NC(=O)c1cc(C(F)(F)F)nn1C)c1nc(-c2cccc(F)c2)no1 [Compound 131] |
| ≤ 1000 nM | C[C@H](NC(=O)c1cc(C(F)F)nn1C1CC1)c1nc(-c2cccc(F)c2)no1 [Compound 132] |
| 1000 to 20000 nM | CC(NC(=O)c1c2c(nn1C)CCCC2)c1nc(-c2cccc(F)c2)no1 (centres unmarked) [Compound 133] |
| ≥ 20000 nM | CC(=O)NC[C@H](NC(=O)c1cc(C(F)(F)F)nn1C)c1nc(-c2cccc(F)c2)no1 [Compound 134] |
| 1000 to 20000 nM | CC(=O)NC[C@@H](NC(=O)c1cc(C(F)(F)F)nn1C)c1nc(-c2cccc(F)c2)no1 [Compound 137] |
| ≤ 1000 nM | CO[C@@H](C)[C@@H](NC(=O)c1cc(C(F)(F)F)nn1C)c1nc(-c2cccc(F)c2)no1 [Compound 138] |
| ≤ 1000 nM | CO[C@H](C)[C@@H](NC(=O)c1cc(C(F)(F)F)nn1C)c1nc(-c2cccc(F)c2)no1 [Compound 139] |
| 1000 to 20000 nM | CO[C@@H](C)[C@H](NC(=O)c1cc(C(F)(F)F)nn1C)c1nc(-c2cccc(F)c2)no1 [Compound 142] |
| 1000 to 20000 nM | Cn1nc(C(F)(F)F)cc1C(=O)NC(c1nc(-c2cccc(F)c2)no1)C1COC1 (centres unmarked) [Compound 147] |
| 1000 to 20000 nM | Cn1nc(C(F)(F)F)cc1C(=O)NC1(c2nc(-c3cccc(F)c3)no2)CCOC1 (centres unmarked) [Compound 148] |
| ≤ 1000 nM | Cn1nc(C(F)(F)F)cc1C(=O)NC1(c2nc(-c3cccc(F)c3)no2)CCOC1 (centres unmarked) [Compound 149] |

| SMILES | IC50 |
| --- | --- |
| Cn1nc(C(F)(F)F)cc1C(=O)NC(CC#N)c1nc(-c2cccc(F)c2)no1 (centres unmarked) [Compound 140] | 1000 to 20000 nM |
| Cn1nc(C(F)(F)F)cc1C(=O)NC(CC#N)c1nc(-c2cccc(F)c2)no1 (centres unmarked) [Compound 141] | 1000 to 20000 nM |
